# From US20130156845A1, “LIPID FORMULATED SINGLE STRANDED RNA” (ALNYLAM PHARMACEUTICALS, INC., priority 2010, published 2013)
# Read-outs that look alike come from different tables or passages of the source. Strand notation (5' to 3'): a small letter for the sugar, then the base; units joined by * are phosphorothioate-linked, units joined directly phosphodiester-linked; [ ] holds rarer units or linkages, { } end groups; capitals alone tell only the bases. [DMAEAc-N] = nucleoside with 2'-O-dimethylaminoethyl acetamide (DMAEAc) sugar (N: the base); [R5Me] = (R)-5'-methyl-2'-deoxythymidine; e = 2'-O-(2-methoxyethyl) (MOE); m = 2'-O-methyl; {P} = phosphate; f = 2'-fluoro
# What was measured:
# [1] = Phosphate stability in mouse serum (Example 68)
# Protocol: Single-stranded oligomeric compounds were tested for stability in mouse serum.
# [2] = Modified ssRNA 5′-phosphate serum stability assay (Example 60); format: in vitro ADME; details: full length ssRNA with 5′-terminal phosphate; 10 μM in 95% fresh mouse serum, 37° C., LC/MS
# Text: A serum stability assay is useful for evaluating the stability of oligomeric compounds in the presences of nucleases and other enzymes found in serum. For example, the stability of a 5′-terminal phosphate group of an oligomeric compound can be evaluated by assessing the ability of the 5′-terminal phosphate group to remain attached to the oligomeric compound in the presence of serum. Accordingly, a serum stability assay was employed to evaluate the stability of modified ssRNAs having a 5′-terminal phosphate group.
# Various modified ssRNAs, shown below, having a 5′-terminal phosphate group (10 μM) were dissolved in 95% of fresh mouse serum and incubated at 37° C. Aliquots of serum (100 μL) were removed after 0, 1, 3, 6 or 24 hours of incubation times. The serum samples were immediately quenched and snap frozen. The samples were extracted by the strong anion exchange (SAX) and octadecylsilyl (C-18) columns. For each incubation time, the amount of full length modified ssRNA having a 5′-terminal phosphate group was determined by LC/MS, and the half-life of the full length modified ssRNA having a 5′ terminal phosphate group was calculated. The results are expressed as half-time (T1/2) in the table below.
# human PTEN = experiment: PTEN expression in HeLa cells, ssRNAs vs siRNAs (Example 62); format: cell-based
# Protocol: A series of 5′ and 2′ bis-substituted modified oligomeric compounds were prepared as single strand RNAs (ssRNAs). The antisense (AS) strands listed below were designed to target human PTEN, and each was also assayed as part of a duplex with the same sense strand (ISIS 341401, shown below) for their ability to reduce PTEN expression levels. HeLa cells were treated with the single stranded or double stranded oligomeric compounds created with the antisense compounds shown below using methods described herein. The IC50's were calculated using the linear regression equation generated by plotting the normalized mRNA levels to the log of the concentrations used.
# A549 cells = experiment: MicroRNA mimics: cell cycle assay; format: cell-based; details: RNAIMAX transfection, 0.1-100 nM, nocodazole, propidium iodide flow cytometry
# Protocol: A cell cycle assay was used to evaluate the activity of microRNA mimics. A549 cells were plated at a density of approximately 45,000 cells per well of a 24-well plate. The following day, cells were transfected with microRNA mimics and control oligomeric compounds, using RNAIMAX as the transfection reagent. Oligomeric compounds were tested at concentrations ranging from 0.1 nM to 100 nM. Control oligomeric compounds were also tested. Approximately 24 hours following transfection, nocodazole was added to the cells at a concentration ranging from 0.5 to 2.0 μg/ml. Approximately 16 hours later, the cells were harvested, washed, ethanol-fixed and stained with propidium iodide. Cells cycle profiles were generated by subjecting the stained cells to flow cytometry (FACSCAN).
# PTEN [3] = experiment: PTEN mRNA reduction in HeLa cells, dose response (Example 69); format: cell-based, human; details: percent inhibition of PTEN mRNA, 0.067-50 nM
# Protocol: In accordance with the present disclosure, oligomeric compounds were synthesized and tested for their ability to reduce PTEN expression over a range of doses. Human HeLa cells were treated with either ISIS 447581, 467074, 418046 or 467076. A dose comparison was evaluated with dose concentrations of 0.067, 0.2, 0.62, 1.9, 5.5, 16.7 and 50 nM using methods described herein. Expression levels of PTEN were determined using real-time PCR and normalized to RIBOGREEN™ using methods described herein. The percent inhibition of PTEN mRNA was determined and the resulting dose-response curves were used to determine the EC50. The EC50s are listed below.
# [4] = In vivo stability: tissue level of intact compound (Example 71)
# Protocol: The in vivo stability of the three oligomeric compounds in Example 70 was evaluated. The tissue samples were obtained from the animals in which PTEN was assessed. […] Quantitative analysis of the oligonucleotides standard were performed by extracted ion chromatograms in the most abundant charge state (−4) using Chemstation software.
# PTEN [5] = experiment: Liver PTEN mRNA in Balb/c mice, unformulated oligomeric compounds (Example 70); format: in vivo, mouse; details: 48 h; for inhibition of PTEN: 75 mg/kg, liver; for % inhibition: liver PTEN mRNA, single i.p. dose 75 mg/kg, normalized to saline control
# Protocol: Six-week-old male Balb/c mice (Jackson Laboratory, Bar Harbor, Me.) were injected intraperitenially with a single dose of 75 mg/kg of one of the three oligomeric compounds above or with saline control. Each dose group consisted of four animals. The mice were sacrificed 48 hours following administration. Livers were collected and PTEN mRNA levels were assessed using real-time PCR and RIBOGREEN® RNA quantification reagent (Molecular Probes, Inc. Eugene, Oreg.) according to standard protocols. PTEN mRNA levels were determined relative to total RNA (using Ribogreen), and normalized to the saline-treated control. Results are listed below as the average % inhibition of PTEN mRNA expression for each treatment group, normalized to saline-injected control.
# PTEN [6] = experiment: In vivo evaluation of ssRNA formulated in lipid particle LNP06, liver PTEN mRNA (Example 77); parameters: species or system mouse; details: ssRNA formulated in LNP06, 4.5 mg/kg tail vein, C57BL/6 mice, liver PTEN mRNA normalized to GAPDH, 2 days post injection
# Protocol: In accordance with the present disclosure, oligomeric compounds were synthesized and tested for their ability to reduce PTEN. C57BL/6 mice (Charles River Labs, MA) received either saline or LNP formulated single stranded RNA via tail vein injection at a volume of 0.01 mL/g and the single stranded RNA dose is 4.5 mg/kg. 25 groups of female mice and 9 modified ssRNAs targeting PTEN were formulated in LNP06 and tested. To determine liver mRNA levels of PTEN, 2 days post injection, animals were sacrificed and livers were harvested and snap frozen in liquid nitrogen. Liver lysates were prepared from the frozen tissues and liver mRNA levels of PTEN normalized to GAPDH were quantified using a branched DNA assay (QuantiGene Assay, Panomics, Calif.).
# [7] = full compound with intact phosphorous moiety, first table
# [8] = antisense strand duplexed with sense strand ISIS 341401, PTEN mRNA, read-out: EC50 (nM) siRNA
# [9] = single stranded antisense compound, PTEN mRNA, read-out: EC50 (nM) ssRNA
# [10] = Dose @ 75 mg/kg (48 h time point)
Substance,T1/2 [2] [h],EC50 (human PTEN; [8]) [nM],EC50 (human PTEN; [9]) [nM],EC50 (PTEN [3]) [nM],further results
"P-TdUfGfUfCfUfCfUfGfGfUfCfCfUfUfAfCfUfUfAeAe (antisense {P}-[DMAEAc-T]fUfGfUfCfUfCfUfGfGfUfCfCfU*fU*fA*fC*fU*fU*eA*eA) [ISIS 422391, modified ssRNA targeting PTEN]",6.5,0.5,5,,"T1/2 full length ([1]; four compounds tested separately, second table): 3.7 h; T1/2 full length [1, 7]: 6.5 h"
"ds miR-16: double-stranded miR-16 mimic: UAGCAGCACGUAAAUAUUGGCG (SEQ 21) with AAAGCGUCGUGCAUUUAUAACC (SEQ 22) (chain 2 CCAAUAUUUACGUGCUGCGAAA; listed as RNA, chemistry not given here) [reference compound]",,,,,cell cycle phenotype (A549 cells): blocked cells in the G1 phase of the cell cycle
"P-TScUfGmUfCmUfCmUfGmGfUmCfCmUfUmAfCmUfUmAeAe (antisense TUGUCUCUGGUCCUUACUUAA; 5'-phosphate, 2'-F/2'-OMe, MOE modifications, chemistry not fully specified) [ISIS 467074, modified ssRNA targeting PTEN]",,0.1,2.5,2.5,"compound lacking the 5′-phosphate in tissue ([4]; 75 mg/kg, 48 h): detected; level of intact compound in tissue ([4]; 75 mg/kg, 48 h): not detected; Tissue Level of intact compound (μg/g) [4, 10]: none detected; inhibition of PTEN (PTEN [5]): lowest amount of PTEN reduction; % inhibition (PTEN [5]): 11%; % Kd (PTEN [6]): 52%"
"P-USfUfGfUfCfUfCfUfGfGfUfCfCfUfUfAfCfUfUf (antisense UUGUCUCUGGUCCUUACUU; 5'-phosphate, 2'-F, phosphorothioate, chemistry not fully specified) [ISIS 398701, modified ssRNA targeting PTEN]",18.2,,,,
"P-TRUfGfUfCfUfCfUfGfGfUfCfCfUfUfAfCfUfUfAeAe (antisense TUGUCUCUGGUCCUUACUUAA; sugars from the 5' end [R5Me]1 f18 e2, 5' {P}, backbone not given here) [ISIS 432356, modified ssRNA targeting PTEN]",8.7,0.7,3,,"T1/2 full length [1, 7]: 8.7 h"
"P-UmUfGmUfCmUfCmUfGmGfUmCfCmUfUmAfCmUfUmAeAe (antisense UUGUCUCUGGUCCUUACUUAA; sugars from the 5' end mfmfmfmfmfmfmfmfmfmee, 5' {P}, backbone not given here) [ISIS 418046, modified ssRNA targeting PTEN]",,0.2,2,0.83,
P-UmAfGfCfAfGfCfAfCmGmUfAfAmAmUfAfUfUfGfGmCmGmAeAe [ss miR-16],,,,,cell cycle phenotype (A549 cells): blocking cells in the G1 phase of the cell cycle
"Py-^meUmUfGmUfCmUfCmUfGmGfUmCfCmUfUmAfCmUfUmAeAe (antisense UUGUCUCUGGUCCUUACUUAA; 5'-methylenephosphonate, 2'-F/2'-OMe, MOE, chemistry not fully specified) [ISIS 467076, modified ssRNA targeting PTEN, 5′-methylenephosphonate]",,0.05,6,6,"level of intact compound in tissue ([4]; 75 mg/kg, 48 h): present at a lower concentration; Tissue Level of intact compound [4, 10]: 22.5 µg/g; inhibition of PTEN (PTEN [5]): smaller inhibition of PTEN; % inhibition (PTEN [5]): 16%; % Kd (PTEN [6]): 34%"
